Our source for the IC90 values is patent US20230011869A1 (Hoffmann-La Roche Inc., priority 2018, published 2023).

Each structure is given as a SMILES string. Structures can show the parent of a compound that is named as a salt.

The experiment has as its system Acinetobacter baumannii ATCC17961. Briefly: Antimicrobial susceptibility testing: 90% growth inhibitory concentration (IC90) determination, Iso-Sensitest broth. Type of experiment: cell-based. The following applies: Acinetobacter baumannii, ATCC17961, 16 h, 90% growth inhibitory concentration, Acinetobacter baumannii ATCC17961, Iso-Sensitest broth, OD 600 nm over 16 h; read-out: ATCC17961 IC90. The protocol: Antimicrobial Susceptibility Testing:
90% Growth Inhibitory Concentration (IC90) Determination
The in vitro antimicrobial activity of the compounds was determined according to the following procedure:
The assay used a 10-points Iso-Sensitest broth medium to measure quantitatively the in vitro activity of the compounds against Acinetobacter baumannii ATCC17978 and Acinetobacter baumannii ATCC17961.
Stock compounds in DMSO were serially twofold diluted (e.g. range from 50 to 0.097 μM final concentration) in 384 wells microtiter plates and inoculated with 49 μl the bacterial suspension in Iso-Sensitest medium to have a final cell concentration of 5×10^(5) CFU/ml in a final volume/well of 50 ul/well. Microtiter plates were incubated at 35±2° C.
Bacterial cell growth was determined with the measurement of optical density at λ=600 nm each 20 minutes over a time course of 16 h. Growth inhibition was calculated during the logarithmic growth of the bacterial cells with determination of the concentration inhibiting 50% (IC50) and 90% (IC90) of the growth.
Table 1 provides the 90% growth inhibitory concentrations (IC90) in micromoles per liter of the compounds of present invention obtained against the strain Acinetobacter baumannii ATCC17978 and Acinetobacter baumannii ATCC17961.
`Cc1cc(Nc2nccn3c(-c4ccc(OC(F)F)cc4)cnc23)ccc1C(=O)N1CCN(C(=O)C2CCNCC2)CC1` [Example 173, [4-[[3-[4-(difluoromethoxy)phenyl]imidazo[1,2-a]pyrazin-8-yl]amino]-2-methyl-phenyl]-[4-(piperidine-4-carbonyl)piperazin-1-yl]methanone hydrochloride]: the IC90 (usually the concentration at which the effect reaches the 90% level) came out at 35 nM.

Take `COc1ccc(-c2cnc3c(Nc4ccc(C(=O)N5CCN(C(=O)[C@@H]6C[C@@H](O)CN6)CC5)c(C)c4)nccn23)c(F)c1F` [Example 184, [4-[[3-(2,3-difluoro-4-methoxy-phenyl)imidazo[1,2-a]pyrazin-8-yl]amino]-2-methyl-phenyl]-[4-[(2S,4R)-4-hydroxypyrrolidine-2-carbonyl]piperazin-1-yl]methanone hydrochloride]: the IC90 came to 41 nM.

For the compound `Cc1cc(Nc2nccn3c(-c4ccc(OCC#N)c(F)c4F)cnc23)ccc1C(=O)N1CCN(C(=O)[C@@H]2CCNC[C@@H]2O)CC1` [Example 188, 2-[2,3-difluoro-4-[8-[4-[4-[(3R,4R)-3-hydroxypiperidine-4-carbonyl]piperazine-1-carbonyl]-3-methyl-anilino]imidazo[1,2-a]pyrazin-3-yl]phenoxy] acetonitrile formate], the IC90 turned out to be 51 nM.

In the case of `Cc1cc(Nc2nccn3c(-c4ccc(OCC#N)c(F)c4F)cnc23)ccc1C(=O)N1CCN(C(=O)[C@H]2CCNC[C@H]2O)CC1` [Example 189, 2-[2,3-difluoro-4-[8-[4-[4-[(3S,4S)-3-hydroxypiperidine-4-carbonyl]piperazine-1-carbonyl]-3-methyl-anilino]imidazo[1,2-a]pyrazin-3-yl]phenoxy] acetonitrile formate], the IC90 came to 60 nM.

`Cc1cc(Nc2nccn3c(-c4ccc(OCC#N)c(F)c4F)cnc23)ccc1C(=O)N1CCN(C(=O)[C@@H]2CCNC[C@H]2O)CC1` [Example 190, 2-[2,3-difluoro-4-[8-[4-[4-[(3S,4R)-3-hydroxypiperidine-4-carbonyl]piperazine-1-carbonyl]-3-methyl-anilino]imidazo[1,2-a]pyrazin-3-yl]phenoxy] acetonitrile formate]: the concentration for an effect of 90% (IC90) worked out at 46 nM.

For `Cc1cc(Nc2nccn3c(-c4ccc(OCC#N)c(F)c4F)cnc23)ccc1C(=O)N1CCN(C(=O)[C@H]2CCNC[C@@H]2O)CC1` [Example 191, 2-[2,3-difluoro-4-[8-[4-[4-[(3R,4S)-3-hydroxypiperidine-4-carbonyl]piperazine-1-carbonyl]-3-methyl-anilino]imidazo[1,2-a]pyrazin-3-yl]phenoxy] acetonitrile formate], the concentration for an effect of 90% (IC90) came out at 73 nM.

On to `Cc1cc(Nc2nccn3c(-c4ccc(OCC#N)c(F)c4F)cnc23)ccc1C(=O)N1CCN(C(=O)C2CCNCC2)CC1` [Example 197, 2-[2,3-difluoro-4-[8-[3-methyl-4-[4-(piperidine-4-carbonyl)piperazine-1-carbonyl]anilino]imidazo [1,2-a]pyrazin-3-yl]phenoxy] acetonitrile formate], for which the IC90 came out at 52 nM.

With `Cc1cc(Nc2nccn3c(-c4ccc(OCC#N)c(F)c4F)cnc23)ccc1C(=O)N1CCN(C(=O)[C@@H]2CCNC2)CC1` [Example 198, 2-[2,3-difluoro-4-[8-[3-methyl-4-[4-[(3R)-pyrrolidine-3-carbonyl]piperazine-1-carbonyl]anilino]imidazo[1,2-a]pyrazin-3-yl]phenoxy] acetonitrile formate], the IC90 amounted to 39 nM.

As to `Cc1cc(Nc2nccn3c(-c4ccc(OCC#N)c(F)c4F)cnc23)ccc1C(=O)N1CCN(C(=O)[C@@H]2C[C@@H](O)CN2)CC1` [Example 200, 2-[2,3-difluoro-4-[8-[4-[4-[(2S,4R)-4-hydroxypyrrolidine-2-carbonyl]piperazine-1-carbonyl]-3-methyl-anilino]imidazo[1,2-a]pyrazin-3-yl]phenoxy] acetonitrile formate], the IC90 is 67 nM.

Take `COc1ccc(-c2cnc3c(Nc4ccc(C(=O)N5CCN(C(=O)C6(O)CCNCC6)CC5)c(C)c4)nccn23)c(F)c1F` [Example 204, [4-[[3-(2,3-difluoro-4-methoxy-phenyl)imidazo[1,2-a]pyrazin-8-yl]amino]-2-methyl-phenyl]-[4-(4-hydroxypiperidine-4-carbonyl)piperazin-1-yl]methanone hydrochloride]: the IC90 is 46 nM.

Consider `Cc1cc(Nc2nccn3c(-c4ccc(OCC#N)c(F)c4F)cnc23)ccc1C(=O)N1CCN(C(=O)C2(O)CCNCC2)CC1` [Example 206, 2-[2,3-difluoro-4-[8-[4-[4-(4-hydroxypiperidine-4-carbonyl)piperazine-1-carbonyl]-3-methyl-anilino]imidazo[1,2-a]pyrazin-3-yl]phenoxy] acetonitrile formate], for which the IC90 turned out to be 36 nM.

On to `Cc1cc(Nc2nccn3c(-c4ccc(OCC#N)c(F)c4Cl)cnc23)ccc1C(=O)N1CCN(C(=O)C2CCNCC2)CC1` [Example 209, 2-[3-chloro-2-fluoro-4-[8-[3-methyl-4-[4-(piperidine-4-carbonyl)piperazine-1-carbonyl]anilino]imidazo[1,2-a]pyrazin-3-yl]phenoxy] acetonitrile formate], for which the IC90 came to 68 nM.

Regarding `Cc1cc(Nc2nccn3c(-c4ccc(OCC#N)c(F)c4Cl)cnc23)ccc1C(=O)N1CCN(C(=O)[C@@H]2C[C@@H](O)CN2)CC1` [Example 211, 2-[3-chloro-2-fluoro-4-[8-[4-[4-[(2S,4R)-4-hydroxypyrrolidine-2-carbonyl]piperazine-1-carbonyl]-3-methyl-anilino]imidazo[1,2-a]pyrazin-3-yl]phenoxy] acetonitrile formate], the IC90 is 42 nM.

With `Cc1cc(Nc2nccn3c(-c4ccc(OCC#N)c(F)c4Cl)cnc23)ccc1C(=O)N1CCN(C(=O)[C@@H]2CCNC2)CC1` [Example 212, 2-[3-chloro-2-fluoro-4-[8-[3-methyl-4-[4-[(3R)-pyrrolidine-3-carbonyl]piperazine-1-carbonyl]anilino]imidazo[1,2-a]pyrazin-3-yl]phenoxy] acetonitrile formate], the IC90 amounted to 34 nM.

Turning to `Cc1cc(Nc2nccn3c(-c4ccc(OCC#N)c(F)c4Cl)cnc23)ccc1C(=O)N1CCN(C(=O)[C@H]2CCNC2)CC1` [Example 213, 2-[3-chloro-2-fluoro-4-[8-[3-methyl-4-[4-[(3S)-pyrrolidine-3-carbonyl]piperazine-1-carbonyl]anilino]imidazo[1,2-a]pyrazin-3-yl]phenoxy] acetonitrile formate], the IC90 came to 33 nM.

`Cc1cc(Nc2nccn3c(-c4ccc(OCC#N)c(F)c4Cl)cnc23)ccc1C(=O)N1CCN(C(=O)C2(O)CCNCC2)CC1` [Example 214, 2-[3-chloro-2-fluoro-4-[8-[4-[4-(4-hydroxypiperidine-4-carbonyl)piperazine-1-carbonyl]-3-methyl-anilino]imidazo[1,2-a]pyrazin-3-yl]phenoxy] acetonitrile formate]: the IC90 is 41 nM.

For the compound `Cc1cc(Nc2nccn3c(-c4ccc(OCC#N)c(F)c4Cl)cnc23)ccc1C(=O)N1CCN(C(=O)[C@H]2CCNC[C@@H]2O)CC1` [Example 220, 2-[3-chloro-2-fluoro-4-[8-[4-[4-[(3R,4S)-3-hydroxypiperidine-4-carbonyl]piperazine-1-carbonyl]-3-methyl-anilino]imidazo[1,2-a]pyrazin-3-yl]phenoxy] acetonitrile formate], the IC90 was determined as 64 nM.

For the compound `Cc1cc(Nc2nccn3c(-c4ccc(OCC#N)c(F)c4Cl)cnc23)ccc1C(=O)N1CCN(C(=O)[C@@H]2CCNC[C@H]2O)CC1` [Example 221, 2-[3-chloro-2-fluoro-4-[8-[4-[4-[(3S,4R)-3-hydroxypiperidine-4-carbonyl]piperazine-1-carbonyl]-3-methyl-anilino]imidazo[1,2-a]pyrazin-3-yl]phenoxy] acetonitrile formate], the 90% effect concentration (IC90) was 59 nM.

Turning to `Cc1cc(Nc2nccn3c(-c4ccc(OCC#N)c(F)c4Cl)cnc23)ccc1C(=O)N1CCN(C(=O)[C@H]2CCNC[C@H]2O)CC1` [Example 222, 2-[3-chloro-2-fluoro-4-[8-[4-[4-[(3S,4S)-3-hydroxypiperidine-4-carbonyl]piperazine-1-carbonyl]-3-methyl-anilino]imidazo[1,2-a]pyrazin-3-yl]phenoxy] acetonitrile formate], the IC90 is 38 nM.

As to `COc1ccc(-c2cnc3c(Nc4ccc(C(=O)N5CCN(C(=O)[C@@H]6C[C@H](O)CN6)CC5)c(C)c4)nccn23)c(F)c1F` [Example 227, [4-[[3-(2,3-difluoro-4-methoxy-phenyl)imidazo[1,2-a]pyrazin-8-yl]amino]-2-methyl-phenyl]-[4-[(2S,4S)-4-hydroxypyrrolidine-2-carbonyl]piperazin-1-yl]methanone], the IC90 is 58 nM.

For `CC[C@@]1(O)CN[C@H](C(=O)N2CCN(C(=O)c3ccc(Nc4nccn5c(-c6ccc(OCC#N)c(F)c6F)cnc45)cc3C)CC2)C1` [Example 229, 2-[4-[8-[4-[4-[(2S,4S)-4-ethyl-4-hydroxy-pyrrolidine-2-carbonyl]piperazine-1-carbonyl]-3-methyl-anilino]imidazo[1,2-a]pyrazin-3-yl]-2,3-difluoro-phenoxy]acetonitrile formate], the IC90 was 44 nM.
